Reference: PMC5382200, “Mapping and Identification of Antifungal Peptides in the Putative Antifungal Protein AfpB from the Filamentous Fungus Penicillium digitatum” (Frontiers in Microbiology, 2017)
Converted amounts (≈) assume the structure as drawn. “Also recorded” adds a separate entry of the source. Like-named read-outs stand apart in the source and are kept apart here. Positions of bridges follow the written chain, without caps; N, C: chain ends. Residues, ends and D or L forms follow the SMILES beside them. No end group written: not given here.

Assays:
recombinant proteinase K [1] = biological target: T1, recombinant proteinase K (Parengyodontium album, UniProt P06873); test: Proteolytic digestion assay with RP-HPLC analysis; format: in vitro ADME; details: two replicates; for resistance to degradation by proteinase K (in words): peptide 5 μM in 10 mM MOPS pH 7, 30°C, 0, 1, 2 and 24 h
T1 construct: purchased Roche, Mannheim, Germany
T1 sequence (P06873 106-384): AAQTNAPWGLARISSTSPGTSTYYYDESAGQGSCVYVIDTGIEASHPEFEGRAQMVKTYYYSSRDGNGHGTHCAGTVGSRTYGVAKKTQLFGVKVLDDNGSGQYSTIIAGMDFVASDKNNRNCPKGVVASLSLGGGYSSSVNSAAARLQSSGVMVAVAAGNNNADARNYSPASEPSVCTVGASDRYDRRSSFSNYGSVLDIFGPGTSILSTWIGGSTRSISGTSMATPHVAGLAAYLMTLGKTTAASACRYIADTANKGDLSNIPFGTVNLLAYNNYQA
Description: (§1) The proteolytic digestion assays were performed as described ([Ferre et al., 2006]; [López-García et al., 2015]) with minor modifications. Peptides (5 μM) were dissolved in 10 mM MOPS pH 7 and digested with 5 μg/mL of recombinant proteinase K (2 U/mg; Roche, Mannheim, Germany) at 30°C. Aliquots were withdrawn from the reaction mixtures at 0, 1, 2, and 24 h of incubation and immediately heated at 80°C for 10 min to inactivate the enzyme. Two replicates were prepared for each treatment, and the experiments were repeated at least twice.
(§2) Analyses of peptide digests were conducted by RP-HPLC using a Waters system (Waters Corporation, Milford, MA, USA) equipped with a 1525 Binary HPLC pump, a 2996 Photodiode Array Detector, and a 717 plus Autosampler. A Symmetry C18 column (4.6 mm × 150 mm, 5 μm, Waters Corporation) kept at 40°C was operated at a flow rate of 1 mL/min. Peptides were eluted with a linear gradient of solvent B [acetonitrile with 0.1% trifluoroacetic acid (TFA)] in solvent A (water with 0.1% TFA) 0–40% in 20 min and detected at 214 nm.

mammalian cells = details: ref Marx et al., 2008; cited from earlier work
From the text: (§3) There is an urgent need to develop new antifungal molecules with properties and mechanisms of action different from existing ones ([Brown et al., 2012]; [Fisher et al., 2012]). […] A remarkable group of AMPs are the antifungal proteins (AFPs) of fungal origin. AFPs belong to the broad class of defensins and are p ...

[2] = ref Palicz et al., 2013; cited from earlier work
From the text: as §3

P. chrysogenum Q176 = details: 72 h
Description: (§4) The fungal strains used in this study are P. digitatum CECT20796, P. chrysogenum Q176, Botrytis cinerea CECT2100, Fusarium oxysporum 4287, and Aspergillus niger CBS 120.49. Fungi were cultured on potato dextrose agar (Difco-BD Diagnostics, Sparks, MD, USA) plates for 7–10 days at 24°C with the exception of F. oxysporum, which was cultured on potato dextrose broth (PDB; Difco-BD Diagnostics) at 28°C for 4 days with shaking. Conidia (mitotic asexual spores) were collected, filtered, and adjusted to the appropriate concentration. For antibacterial assays, the Gram-negative bacterium Escherichia coli JM109 was grown in Luria-Bertani (LB) medium at 37°C with shaking.
(§5) Growth inhibition assays were performed in 96-well microtiter plates (Nunc, Roskilde, Denmark) in a total volume of 100 μL as described previously ([López-García et al., 2002]). […] All samples were prepared in triplicate. Plates were statically incubated for 72 h at the optimal temperature of each microorganism. Growth was determined by measuring the optical density (OD) at 600 nm (OD600) using a Multiskan Spectrum plate spectrophotometer (Thermo Electron Corporation, Vantaa, Finland), and the OD600 mean and SD were calculated. Dose–response curves were generated from measurements after 72 h for fungi, and 48 h for E. coli. These experiments were repeated at least twice.

A. niger CBS 120.49 = system: A. niger CBS 120.49
Description: as §4, §5

B. cinerea CECT2100 = system: B. cinerea CECT2100
Description: as §4, §5

P. digitatum CECT20796 = system: P. digitatum CECT20796
Description: as §4, §5

proteinase K = system: T2, proteinase K; test: Proteolytic digestion assay with RP-HPLC analysis; format: in vitro ADME; details: recombinant proteinase K; proteinase K 5 μg/mL (2 U/mg), peptide 5 μM in 10 mM MOPS pH 7, 30°C, 24 h; RP-HPLC C18 peak area at 214 nm; two replicates; read-out: peptide left after 24 h of treatment
T2 construct: purchased Roche, Mannheim, Germany
Description: as §1, §2

recombinant proteinase K [3] = biological target: T1, recombinant proteinase K; details: control peptide; ref López-García et al., 2015; cited from earlier work
Description: To exclude the possibility that increased sensitivity to proteolytic degradation could be the reason for limited antifungal activity, we tested the in vitro stability of the peptides derived from AfpB by incubation with proteinase K at different times and RP-HPLC analysis of the resultant digests.

F. oxysporum 4287 = details: 4287, 72 h
Description: as §4, §5

[4] = proteinase K 5 μg/mL, RP-HPLC peak area at 214 nm
[5] = B. cinerea CECT2100, 2.5 × 10^4 conidia/mL in 1/20 diluted PDB with 0.01% chloramphenicol, 72 h, OD600, triplicate

Molecule | resistance to degradation by proteinase K (in words) (recombinant proteinase K [1]; [4]) | Minimum inhibitory concentration (MIC) (P. chrysogenum Q176) | Minimum inhibitory concentration (MIC) (A. niger CBS 120.49; CBS 120.49, 72 h) | Minimum inhibitory concentration (MIC) (B. cinerea CECT2100; [5]) | Minimum inhibitory concentration (MIC) (P. digitatum CECT20796; CECT20796, 72 h) | other results
CC(C)[C@@H]1NC(=O)[C@H](CCCNC(=N)N)NC(=O)[C@H](CCCNC(=N)N)NC(=O)[C@H](Cc2c[nH]cn2)NC(=O)[C@H](Cc2c[nH]cn2)NC(=O)[C@H](CCC(=O)O)NC(=O)[C@H](CC(=O)O)NC(=O)[C@H](Cc2ccc(O)cc2)NC(=O)[C@H](CCC(=O)O)NC(=O)[C@@H](NC(=O)[C@@H](N)Cc2c[nH]cn2)CSSC[C@@H](C(=O)N[C@@H](CCC(N)=O)C(=O)O)NC(=O)[C@H](CC(=O)O)NC1=O [PAF119] (H-HCEYDEHHRRVDCQ-OH; disulfide 2-13) | remarkably resistant; also recorded: extremely stable |  |  |  |  | 
AKYTGKCTKSKNECKYKNDAGKDTFIKCPKFDNKKCTKDNNKCTVDTYNNAVDCD (disulfide 7-36, 14-43, 28-54) [PAF protein] |  |  |  |  |  | toxicity to mammalian cells in vitro (mammalian cells): non-toxic; toxicity in vivo [2]: non-toxic
CC[C@H](C)[C@@H]1NC(=O)[C@H](C(C)C)NC(=O)[C@H](CC(N)=O)NC(=O)[C@H](CCCNC(=N)N)NC(=O)CNC(=O)CNC(=O)[C@H](CCCCN)NC(=O)[C@H](CC(C)C)NC(=O)[C@H](Cc2ccc(O)cc2)NC(=O)[C@H]([C@@H](C)O)NC(=O)[C@@H](NC(=O)[C@@H](NC(=O)[C@@H](N)CC(N)=O)[C@@H](C)O)CSSC[C@@H](C(=O)NCC(=O)O)NC(=O)[C@H](CC(N)=O)NC(=O)[C@H](C(C)C)NC1=O [PAF118] (H-NTCTYLKGGRNVIVNCG-OH; disulfide 3-16) |  | >128 µM | >128 µM | 64 µM (≈ 116 µg/mL) | 64 µM (≈ 116 µg/mL) | peptide left after 24 h of treatment (recombinant proteinase K [1]; proteinase K 5 μg/mL (2 U/mg), peptide 5 μM in 10 mM MOPS pH 7, 30°C, 24 h, RP-HPLC C18 peak area at 214 nm): around 20%; intact peptide after 1 and 2 h of treatment (recombinant proteinase K [1]; proteinase K 5 μg/mL, peptide 5 μM in 10 mM MOPS pH 7, 30°C, 1 and 2 h, RP-HPLC peak area at 214 nm): severe reduction
CC(C)C[C@@H]1NC(=O)[C@H](CO)NC(=O)[C@@H](NC(=O)[C@H](CCC(N)=O)NC(=O)CN)CSSC[C@@H](C(=O)N[C@H](C(=O)O)[C@@H](C)O)NC(=O)[C@H]([C@@H](C)O)NC(=O)[C@H](CC(N)=O)NC(=O)[C@H](Cc2c[nH]cn2)NC(=O)[C@H](CCCCN)NC1=O [PAF109] (H-GQCSLKHNTCT-OH; disulfide 3-10) | remarkably resistant; also recorded: extremely stable |  |  |  |  | 
NAGSAANKRAKSDRHHAE [PAF113] | high sensitivity |  |  | 128 µM |  | degradation after 1 h of treatment (recombinant proteinase K [1]; proteinase K 5 μg/mL, peptide 5 μM in 10 mM MOPS pH 7, 30°C, 1 h, RP-HPLC peak area at 214 nm): completely degraded; Minimum inhibitory concentration (MIC) (P. chrysogenum Q176; P. chrysogenum Q176, 2.5 × 10^4 conidia/mL in 1/20 diluted PDB with 0.01% chloramphenicol, OD600, triplicate): >128 µM; Minimum inhibitory concentration (MIC) (A. niger CBS 120.49; A. niger CBS 120.49, 2.5 × 10^4 conidia/mL in 1/20 diluted PDB with 0.01% chloramphenicol, 72 h, OD600, triplicate): >128 µM; Minimum inhibitory concentration (MIC) (P. digitatum CECT20796; P. digitatum CECT20796, 2.5 × 10^4 conidia/mL in 1/20 diluted PDB with 0.01% chloramphenicol, 72 h, 24°C, OD600, triplicate, repeated at least twice, concentration that completely inhibited growth in all experiments): 64 µM
C[C@@H]1NC(=O)[C@H](CCCCN)NC(=O)[C@H](CCCCN)NC(=O)[C@H](CC(N)=O)NC(=O)[C@H](CC(=O)O)NC(=O)[C@H](Cc2ccccc2)NC(=O)[C@H](CCCCN)NC(=O)[C@@H]2CCCN2C(=O)[C@@H](NC(=O)[C@@H](N)CCCCN)CSSC[C@@H](C(=O)N[C@H](C(=O)O)[C@@H](C)O)NC(=O)[C@H](CCCCN)NC(=O)[C@H](CC(N)=O)NC(=O)[C@H](CC(N)=O)NC(=O)[C@H](CC(=O)O)NC(=O)[C@H](CCCCN)NC(=O)[C@H]([C@@H](C)O)NC1=O [PAF116] (H-KCPKFDNKKATKDNNKCT-OH; disulfide 2-17) |  |  |  | 16 µM (≈ 33.3 µg/mL) | 32 µM (≈ 66.6 µg/mL) | 
C[C@@H]1NC(=O)[C@H](C)NC(=O)[C@H](CO)NC(=O)CNC(=O)[C@@H](NC(=O)[C@@H](N)CC(N)=O)CSSC[C@@H](C(=O)N[C@@H](CCC(=O)O)C(=O)O)NC(=O)[C@H](Cc2c[nH]cn2)NC(=O)[C@H](Cc2c[nH]cn2)NC(=O)[C@H](CCCNC(=N)N)NC(=O)[C@H](CC(=O)O)NC(=O)[C@H](CO)NC(=O)[C@H](CCCCN)NC(=O)[C@H](C)NC(=O)[C@H](CCCNC(=N)N)NC(=O)[C@H](CCCCN)NC(=O)[C@H](CC(N)=O)NC1=O [PAF112] (H-NCGSAANKRAKSDRHHCE-OH; disulfide 2-17) |  | >128 µM | >128 µM | 128 µM (≈ 254 µg/mL) | 64 µM (≈ 127 µg/mL) | remaining at 24 h, 5 μM (proteinase K): ~20%
RKKWFW [PAF26, reference compound] |  | 16 µM | 8 µM |  | 8 µM | resistance to protease degradation (recombinant proteinase K [3]): highly resistant; Minimum inhibitory concentration (MIC) (F. oxysporum 4287): 16 µM; Minimum inhibitory concentration (MIC) (B. cinerea CECT2100; CECT2100, 72 h): 8 µM
